This note sets out measurements from US20230130103A1, “TARGETED PHARMACOLOGICAL THERAPEUTICS IN UVEAL MELANOMA” (Washington University, priority 2017, published 2023).

Type in all cases: cell-based, Human
In one test the test system is Mel202 cells. Put plainly: Melanocytic re-differentiation (morphology, pigmentation, immunostaining). The protocol: (§1) FIG. 5A Morphological changes elicited by FR. UM cell lines were treated 3 d with FR and imaged by phase contrast microscopy. FR caused UM cells driven by constitutively active Gαq (92.1 and Mel202) to lose their characteristic spindle shaped and assume a stellate shape with multiple projections. FR had no effect on BRAF-driven UM cells (OCM-1A). FIG. 5B Melanocytic differentiation of FR-treated UM cells indicated by pigmentation. UM cell lines were treated 3 d with FR. Cells were pelleted and examined macroscopically. […] Scale bar=50 μm.
(§2) Cell fixation was carried out by adding an equal volume of 2×fixative (PBS with 4% paraformaldehyde and 0.4% glutaraldehyde) to UM cells in RPMI growth medium. After 15 min at 37° C., cells were permeabilized with 0.1% Triton X-100 in PBS for 5 min, washed with PBS, and blocked with 2% fish gelatin (Sigma-Aldrich) in PBS. Primary and secondary antibodies were diluted in 2% fish gelatin in PBS. Primary antibodies included mouse monoclonal anti-pre-melanosomal protein (One World Lab, San Diego, Calif.), rabbit polyclonal anti-tyrosinase (One World Lab), rabbit polyclonal anti-dopachrome tautomerase (One World Lab), rabbit polyclonal anti-S100 (DakoCytomation, Denmark), and mouse monoclonal anti-BrdU (Life Technologies). Secondary antibodies were Alexa-fluor conjugates (Life Technologies), and the mounting agent was ProLong Gold (Life Technologies). Cell morphology was assessed by phase contrast imaging with an inverted microscope (Olympus IX72) using a 10×objective.

For test [1], the system named is OCM-1A cells. The description is as above. The following applies: 3 d FR, FIG. 5A. As for the experimental part: as §1, §2
Test [2] has as its system OCM-1A cells. In words: YAP-driven transcriptional reporter. The following applies: FIG. 6B. The protocol: Expression data from two experimental replicates are mean-centered; the color gradient corresponds to difference in log 2 ratio of expression from the mean, such that 0.5 versus −0.5 is a total difference of 2-fold in unlogged expression.
Assays of transcriptional reporters driven by YAP or Gα subunits were performed as described (42, 43). YAP- or Ga-driven firefly luciferase activity was normalized to Renilla luciferase expressed from a constitutive promoter.

Test [3] concerns 92.1 UM cells. Put plainly: RNA-Seq global gene expression, FR vs vehicle. The following applies: 92.1 cells, 100 nM FR, p<0.001.
Test [4] concerns 92.1 UM cells. Put plainly: qPCR validation of FR target genes. The note with it: 92.1 cells; FIG. 10. The protocol:
(§3) The results for six genes showing significant changes in expression in response to FR by RNA-Seq were validated by qPCR.
(§4) 92.1 UM cells were treated with 100 nM FR or vehicle (DMSO) in RPMI growth medium and collected after 1 and 3 d of treatment. RNA was isolated using the RNeasy Mini Kit (Qiagen) following the manufacturer's protocol and including the optional DNase I treatment step. RNA quality was assessed on a Bioanalyzer 2100 (Agilent Technologies, Santa Clara, Calif., USA). mRNA was extracted from total RNA using a Dynal mRNA Direct kit, fragmented and reverse transcribed to double stranded cDNA with random primers before addition of adapters for library preparation. Library preparation and HiSeq2500 sequencing were performed by the Washington University Genome Technology Access Center (gtac.wustl.edu). FastQ files were aligned to the transcriptome and the whole-genome with STAR. Biologic replicates were simultaneously analyzed by edgeR and Sailfish analyses of gene-level/exon-level features. Unexpressed genes and exons were removed from the analyses. Unsupervised principal component analysis and volcano plots were generated in Bioconductor using edgeR. Significance Analysis of Microarrays (SAM), Version 4.0 was used to generate a ranked gene list, and a threshold of q<10% and fold-change >2.0 was then used to select the most highly significant genes that were down regulated in FR-treated versus vehicle control cells. This list was used as signature gene sets for Gene Ontology (GO) analysis and Gene Set Enrichment Analysis (GSEA) (45). […] Significant gene sets from GSEA analyses were combined such that genes associated with multiple related signatures were only counted once and each gene was assigned only to a single combined groupbased on the signature with the highest enrichment score for that gene. Significant gene expression changes were validated in all three UM cell lines by qPCR using fast SYBR Green Mastermix (Fisher Scientific) following the manufacturers' protocol. GAPDH was used as an endogenous control.
On the technique in general: Quantitative PCR measures a nucleic acid by following its amplification.

For the next test, the system named is OCM-1A UM cells. Put plainly: qPCR validation of FR target genes. The note with it: OCM-1A cells; FIG. 10. As for the experimental part:
as §3, §4

“Also recorded” adds a separate entry of the source. Starred links: 1 amine or outer side, 2 acyl side, 3 side chain; linkers in the order of their positions; H or OH if unused. Positions of bridges follow the written chain, without caps; N, C: chain ends. Non-standard residues stand in square brackets, D forms with d. Residues, ends and D or L forms follow the SMILES beside them. *: point of attachment. Leu(3R-OH,Nα-propionyl) = CCC(=O)N[C@H](C(=O)*)[C@H](O)C(C)C; X1 = CC(C)[C@@H](O[*:3])[C@H](N[*:1])C(=O)[*:2]; X2 = CC(C)[C@H](O[*:3])[C@@H](N[*:1])C(=O)[*:2]; NMeaThr = CN[C@H](C(=O)O)[C@H](C)O; dPhLac = O=C(O)[C@H](O)Cc1ccccc1; NMeA = CN[C@@H](C)C(=O)O; NMeDha = C=C(NC)C(=O)O

Consider `C=C1C(=O)N[C@@H](C)C(=O)N(C)[C@@H](C)C(=O)N[C@H]([C@@H](OC(=O)[C@@H](NC(=O)CC)[C@H](O)C(C)C)C(C)C)C(=O)N(C)[C@@H]([C@H](C)OC)C(=O)O[C@H](C(C)C)[C@H](NC(C)=O)C(=O)O[C@H](Cc2ccccc2)C(=O)N1C` [FR, [(1S)-1-[(3S,6R,9S,12S,18R,21S,22R)-21-acetamido-18-benzyl-3-[(1S)-1-methoxyethyl]-4,9,10,12,16-pentamethyl-15-methylidene-2,5,8,11,14,17,20-heptaoxo-22-propan-2-yl-1,19-dioxa-4,7,10,13,16-pentazacyclodocos-6-yl]-2-methylpropyl] (2S,3R)-3-hydroxy-4-methyl-2-(propanoylamino)pentanoate] (Ac-[X1][dPhLac][NMeDha]A[NMeA][X2](Leu(3R-OH,Nα-propionyl))[NMeaThr](Me); ester 1-C), for which the “cell morphology (phase contrast)” value with Mel202 cells (3 d FR, FIG. 5A) was “morphological changes indicative of re-differentiation”. The melanocytic pigmentation result in the test with Mel202 cells (3 d FR, FIG. 5B) was “strikingly increased”. Further, the “expression levels of TYR, DCT and PMEL (immunofluorescence)” value in the test on Mel202 cells (FIG. 5C) is “increased”. Moreover, the “cell morphology (phase contrast)” value in the test on OCM-1A cells [1] is reported as “no effect”. For the same compound, the “effect on YAP-driven transcriptional reporter” value in the test on OCM-1A cells [2] is recorded as “no effect”. Further, in the test with 92.1 UM cells [3], the BBC3/PUMA expression decrease came to 3.5 fold; the PMAIP1/NOXA expression decrease came out at 2.5 fold; the “p21CIP1 (CDKN1A) expression, down” value was found to be 3.0 fold. Moreover, in the test on 92.1 UM cells [4], the “expression of PMP22 and DCT (qPCR)” value was “significantly upregulated”; the “expression of PRC2 targets ADRA2A, HAND2, SCARF2 and WT1 (qPCR)” value was “significant down-regulation”. In addition, in the test on OCM-1A UM cells, the “expression of PMP22 and DCT (qPCR)” value was “no effect”; the “expression of PRC2 targets ADRA2A, HAND2, SCARF2 and WT1 (qPCR)” value is given as “unaffected; also recorded: no effect”.
